According to US9914722B2, “Compounds for treating spinal muscular atrophy” (PTC Therapeutics Inc., priority 2012, dated 2018):

Test system: SMN2 full length and Δ7 mRNA
Assay: Endogenous SMN2 mRNA RT-qPCR splicing assay in cultured cells
Assay type: cell-based, human
Conditions: 24 hr, FIG. 4
Protocol: Endogenous SMN2 mRNA RT-qPCR Splicing Assay in Cultured Cells
The reverse transcription-quantitative PCR-based (RT-qPCR) assay is used to quantify the levels of the SMN2 full length and Δ7 mRNA in primary cells and cell lines containing the SMN2 gene treated with a test compound.
Protocol. GM03813 SMA patient cells (5,000 cells/well) are seeded in 200 μL, of cell culture medium (DMEM plus 10% FBS) in 96-well flat-bottom plates and the plate is immediately swirled to ensure proper dispersal of cells, forming an even monolayer of cells. Cells are allowed to attach for at least 4-6 hrs. Test compounds are serially diluted 3.16-fold in 100% DMSO to generate a 7-point concentration curve. A solution of test compound (1 μL, 200× in DMSO) is added to each test well and 1 μL, DMSO is added to each control well. The plate is incubated for 24 hrs in a cell culture incubator (37° C., 5% CO2, 100% relative humidity). The cells are then lysed in Cells-To-Ct lysis buffer and the lysate is stored at −80° C.
SMN2-specific spliced products and GAPDH mRNA are identified using the following primers and probes in Table 5. […] Since the SMA patient cells used in Example 3 contain only the SMN2 gene, RT-qPCR can quantify only SMN2 full-length and Δ7 mRNA. […]
The increase of SMN2 FL and decrease in SMN2 Δ7 mRNA relative to those in cells treated with vehicle control are determined from real-time PCR data using a modified ΔΔCt method (as described in Livak and Schmittgen, Methods, 2001, 25:402-8). The amplification efficiency (E) is calculated from the slope of the amplification curve for SMN2 FL, SMN2 Δ7, and GAPDH individually. The abundance of SMN2 FL, SMN2 Δ7 and GAPDH mRNA are then calculated as (1+E)^−Ct, where Ct is the threshold value for each amplicon. […]

[1] = GM03813 Type 1 SMA patient fibroblasts, increasing concentrations

COc1ccc(-c2cc(=O)c3cc(N4CCN[C@@H](C)C4)ccc3o2)cc1F [Cpd 38, 2-(3-fluoro-4-methoxyphenyl)-6-[(3S)-3-methylpiperazin-1-yl]-4H-chromen-4-one]
SMN2 FL mRNA relative to vehicle [1]: progressively more SMN2 FL mRNA
SMN2 Δ7 mRNA relative to vehicle [1]: less SMN2 Δ7 mRNA
SMN2 alternative splicing (Type 1 SMA patient fibroblasts, rising concentrations): correction of SMN2 alternative splicing
